Laboratory results from PubChem BioAssay (NCI).
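Assay format: 96-well plates, 48-hour exposure. TGI marks complete inhibition of growth.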

Assays:
Test in all cases: growth of human tumour cells (NCI), 48 h
[1] = tested on: 786-0 renal
[2] = tested on: A549 NSCLC
[3] = tested on: ACHN renal
[4] = tested on: CAKI-1 renal
[5] = tested on: CCRF-CEM leukemia
[6] = tested on: COLO 205 colon
[7] = tested on: DU-145 prostate
[8] = tested on: EKVX NSCLC
[9] = tested on: HCC-2998 colon
[10] = tested on: HCT-116 colon
[11] = tested on: HCT-15 colon
[12] = tested on: HL-60(TB) leukemia
[13] = tested on: HOP-62 NSCLC
[14] = tested on: HOP-92 NSCLC
[15] = tested on: HS 578T breast
[16] = tested on: HT29 colon
[17] = tested on: IGROV1 ovarian
[18] = tested on: K-562 leukemia
[19] = tested on: KM12 colon
[20] = tested on: LOX IMVI melanoma
[21] = tested on: M14 melanoma
[22] = tested on: MALME-3M melanoma
[23] = tested on: MCF7 breast
[24] = tested on: MDA-MB-231 breast
[25] = tested on: MDA-MB-435
[26] = tested on: MDA-N
[27] = tested on: MOLT-4 leukemia
[28] = tested on: NCI-H226 lung
[29] = tested on: NCI-H23 lung
[30] = tested on: NCI-H460 lung
[31] = tested on: NCI/ADR-RES ovarian
[32] = tested on: OVCAR-3 ovarian
[33] = tested on: OVCAR-4 ovarian
[34] = tested on: OVCAR-5 ovarian
[35] = tested on: OVCAR-8 ovarian
[36] = tested on: PC-3 prostate
[37] = tested on: RPMI-8226 leukemia
[38] = tested on: RXF 393 renal
[39] = tested on: SF-268 CNS
[40] = tested on: SF-295 CNS
[41] = tested on: SF-539 CNS
[42] = tested on: SK-MEL-2 melanoma
[43] = tested on: SK-MEL-28 melanoma
[44] = tested on: SK-MEL-5 melanoma
[45] = tested on: SK-OV-3 ovarian
[46] = tested on: SN12C renal
[47] = tested on: SNB-19 CNS
[48] = tested on: SNB-75 CNS
[49] = tested on: SR leukemia
[50] = tested on: SW-620 colon
[51] = tested on: T-47D breast
[52] = tested on: TK-10 renal
[53] = tested on: U251 CNS
[54] = tested on: UACC-257 melanoma
[55] = tested on: UACC-62 melanoma
[56] = tested on: UO-31 renal
[57] = tested on: A498 renal
[58] = tested on: BT-549 breast
[59] = tested on: NCI-H522 lung

## CC1(C)C(C#N)=[N+]([O-])C(C)(C)N1O
[1]
  TGI: > 100 µM
[2]
  TGI: > 100 µM
[3]
  TGI: > 100 µM
[4]
  TGI: > 100 µM
[5]
  TGI: > 100 µM
[6]
  TGI: > 100 µM
[7]
  TGI: > 100 µM
[8]
  TGI: > 100 µM
[9]
  TGI: > 100 µM
[10]
  TGI: > 100 µM
[11]
  TGI: > 100 µM
[12]
  TGI: 73.4 µM
[13]
  TGI: > 100 µM
[14]
  TGI: > 100 µM
[15]
  TGI: > 100 µM
[16]
  TGI: > 100 µM
[17]
  TGI: > 100 µM
[18]
  TGI: > 100 µM
[19]
  TGI: > 100 µM
[20]
  TGI: > 100 µM
[21]
  TGI: > 100 µM
[22]
  TGI: > 100 µM
[23]
  TGI: > 100 µM
[24]
  TGI: > 100 µM
[25]
  TGI: > 100 µM
[26]
  TGI: > 100 µM
[27]
  TGI: > 100 µM
[28]
  TGI: > 100 µM
[29]
  TGI: > 100 µM
[30]
  TGI: > 100 µM
[31]
  TGI: > 100 µM
[32]
  TGI: > 100 µM
[33]
  TGI: > 100 µM
[34]
  TGI: > 100 µM
[35]
  TGI: > 100 µM
[36]
  TGI: > 100 µM
[37]
  TGI: > 100 µM
[38]
  TGI: > 100 µM
[39]
  TGI: > 100 µM
[40]
  TGI: > 100 µM
[41]
  TGI: > 100 µM
[42]
  TGI: > 100 µM
[43]
  TGI: > 100 µM
[44]
  TGI: > 100 µM
[45]
  TGI: > 100 µM
[46]
  TGI: > 100 µM
[47]
  TGI: > 100 µM
[48]
  TGI: > 100 µM
[49]
  TGI: > 100 µM
[50]
  TGI: > 100 µM
[51]
  TGI: > 100 µM
[52]
  TGI: > 100 µM
[53]
  TGI: > 100 µM
[54]
  TGI: > 100 µM
[55]
  TGI: > 100 µM
[56]
  TGI: > 100 µM

## CCC(=O)C1(c2ccccc2)CCN(C)CC1
[1]
  TGI: > 100 µM
[57]
  TGI: > 100 µM
[2]
  TGI: > 100 µM
[3]
  TGI: > 100 µM
[4]
  TGI: > 100 µM
[5]
  TGI: > 100 µM
[6]
  TGI: > 100 µM
[7]
  TGI: > 100 µM
[8]
  TGI: > 100 µM
[9]
  TGI: > 100 µM
[10]
  TGI: > 100 µM
[11]
  TGI: > 100 µM
[12]
  TGI: > 100 µM
[13]
  TGI: > 100 µM
[14]
  TGI: > 100 µM
[15]
  TGI: > 100 µM
[16]
  TGI: > 100 µM
[17]
  TGI: > 100 µM
[18]
  TGI: > 100 µM
[19]
  TGI: > 100 µM
[21]
  TGI: > 100 µM
[22]
  TGI: > 100 µM
[23]
  TGI: > 100 µM
[26]
  TGI: > 100 µM
[27]
  TGI: > 100 µM
[29]
  TGI: > 100 µM
[30]
  TGI: > 100 µM
[31]
  TGI: > 100 µM
[33]
  TGI: > 100 µM
[34]
  TGI: > 100 µM
[35]
  TGI: > 100 µM
[36]
  TGI: > 100 µM
[37]
  TGI: > 100 µM
[38]
  TGI: > 100 µM
[39]
  TGI: > 100 µM
[40]
  TGI: > 100 µM
[43]
  TGI: > 100 µM
[44]
  TGI: > 100 µM
[45]
  TGI: > 100 µM
[47]
  TGI: > 100 µM
[48]
  TGI: > 100 µM
[49]
  TGI: > 100 µM
[50]
  TGI: > 100 µM
[51]
  TGI: > 100 µM
[52]
  TGI: > 100 µM
[53]
  TGI: > 100 µM
[54]
  TGI: > 100 µM
[56]
  TGI: > 100 µM

## COc1cc(C2SCC(=O)N2Cc2ccccc2)cc(OC)c1OC (stereo not given)
[1]
  TGI: > 100 µM
[2]
  TGI: > 100 µM
[3]
  TGI: > 100 µM
[58]
  TGI: > 100 µM
[4]
  TGI: > 100 µM
[5]
  TGI: > 100 µM
[6]
  TGI: > 100 µM
[7]
  TGI: > 100 µM
[8]
  TGI: > 100 µM
[9]
  TGI: > 100 µM
[10]
  TGI: > 100 µM
[11]
  TGI: > 100 µM
[12]
  TGI: > 100 µM
[14]
  TGI: 71.8 µM
[15]
  TGI: > 100 µM
[16]
  TGI: > 100 µM
[17]
  TGI: > 100 µM
[18]
  TGI: > 100 µM
[19]
  TGI: > 100 µM
[20]
  TGI: > 100 µM
[21]
  TGI: > 100 µM
[23]
  TGI: > 100 µM
[24]
  TGI: > 100 µM
[25]
  TGI: > 100 µM
[26]
  TGI: > 100 µM
[27]
  TGI: > 100 µM
[28]
  TGI: > 100 µM
[29]
  TGI: > 100 µM
[30]
  TGI: > 100 µM
[59]
  TGI: > 100 µM
[31]
  TGI: > 100 µM
[32]
  TGI: > 100 µM
[33]
  TGI: > 100 µM
[34]
  TGI: > 100 µM
[35]
  TGI: > 100 µM
[36]
  TGI: > 100 µM
[37]
  TGI: > 100 µM
[39]
  TGI: > 100 µM
[40]
  TGI: > 100 µM
[41]
  TGI: > 100 µM
[42]
  TGI: > 100 µM
[43]
  TGI: > 100 µM
[44]
  TGI: > 100 µM
[45]
  TGI: > 100 µM
[46]
  TGI: > 100 µM
[47]
  TGI: > 100 µM
[49]
  TGI: > 100 µM
[50]
  TGI: > 100 µM
[52]
  TGI: > 100 µM
[53]
  TGI: > 100 µM
[54]
  TGI: > 100 µM
[55]
  TGI: > 100 µM
[56]
  TGI: > 100 µM

## CC1=[N+]([O-])C(C)(C)N(N=O)C1(C)C
[1]
  TGI: > 10 µM
[2]
  TGI: > 10 µM
[3]
  TGI: > 10 µM
[58]
  TGI: > 10 µM
[4]
  TGI: > 10 µM
[5]
  TGI: > 10 µM
[6]
  TGI: > 10 µM
[7]
  TGI: > 10 µM
[8]
  TGI: > 10 µM
[9]
  TGI: > 10 µM
[10]
  TGI: > 10 µM
[11]
  TGI: > 10 µM
[12]
  TGI: > 10 µM
[13]
  TGI: > 10 µM
[14]
  TGI: > 10 µM
[16]
  TGI: > 10 µM
[18]
  TGI: > 10 µM
[19]
  TGI: > 10 µM
[21]
  TGI: > 10 µM
[22]
  TGI: > 10 µM
[23]
  TGI: > 10 µM
[24]
  TGI: > 10 µM
[25]
  TGI: > 10 µM
[26]
  TGI: > 10 µM
[27]
  TGI: > 10 µM
[28]
  TGI: > 10 µM
[29]
  TGI: > 10 µM
[30]
  TGI: > 10 µM
[59]
  TGI: > 10 µM
[31]
  TGI: > 10 µM
[32]
  TGI: > 10 µM
[33]
  TGI: > 10 µM
[34]
  TGI: > 10 µM
[35]
  TGI: > 10 µM
[36]
  TGI: > 10 µM
[37]
  TGI: > 10 µM
[38]
  TGI: > 10 µM
[39]
  TGI: > 10 µM
[40]
  TGI: > 10 µM
[42]
  TGI: > 10 µM
[46]
  TGI: > 10 µM
[47]
  TGI: > 10 µM
[50]
  TGI: > 10 µM
[51]
  TGI: > 10 µM
[52]
  TGI: > 10 µM
[53]
  TGI: > 10 µM
[54]
  TGI: > 10 µM
[56]
  TGI: > 10 µM
